From US10478437B2, “Combination therapy to enhance the anticancer efficacy of platinum drugs” (University of Pittsburgh-of the Commonwealth System of …, priority 2014, dated 2019)

Key:
[1] = tested on: cisplatin-resistant ovarian cancer cell line A2780cis; assay: Caspase-3/7 activity assay (apoptotic cell death), compound alone or with cisplatin; format: cell-based, human; conditions: for caspase-3/7 activity (Lum), compound with cisplatin / caspase-3/7 activity (Lum), compound alone / caspase-3/7 activity (Lum) with compound and cisplatin (20 μM) / caspase-3/7 activity (Lum) with compound alone: 20 h; for activity in the screen (Caspase-3/7 activity and microscopic examination), active / inactive: alone or in the presence of cisplatin; for activity in the screen (Caspase-3/7 activity and microscopic examination), active / inactive / activity in the Caspase-3/7 activity assay / Caspase-3/7 activity upon combination with cisplatin compared to cisplatin alone or compound alone: in words; for activity in the Caspase-3/7 activity assay: possibly interference with the assay system; for caspase-3/7 activity (Lum) with compound and cisplatin (20 μM) / caspase-3/7 activity (Lum) with compound alone: Table 6; for caspase-3/7 activity (Lum) with compound alone: untreated cells 9 ± 1
Procedure: Cell proliferation was determined using a CyQUANT Direct Cell Proliferation Assay kit (Invitrogen), the activity of caspase-3/7 was measured using a Caspase-Glo 3/7 Assay Systems (Promega, Madison, Wis.), and the MTS calorimetric survival assay was performed using the CellTiter 96 AQueous One Solution Cell Proliferation Assay kit (Promega, Madison, Wis.), according to the manufacturer's instructions. The survival fractions were calculated after setting untreated control cells at 100%. The data were plotted and curve fitted using GraphPad Prism software. To quantify the number of cells with active caspase-3, cells were fixed with 4% paraformaldehyde (Electron microscopy sciences, Hatfield, Pa.), stained with Alexa Fluor-488 conjugated antibody against cleaved caspase-3 (Asp175) (Cell Signaling Technology, Danvers, Mass.) followed by flow cytometry. An FITC Annexin V Apoptosis Detection Kit (BD PharMingen, San Diego, Calif.) was used to quantify apoptotic cells, according to the manufacturer's instructions.
A Caspase-3/7 assay was performed to evaluate the activity of the 36 compounds of FIG. 1 in vitro in the cisplatin-resistant ovarian cancer cell line, A2780cis, alone or in the presence of cisplatin. A microscopic examination of apoptotic morphologic changes was also carried out right before the measurement of Caspase-3/7 activity, in order to confirm that the data on the activation of the Caspase-3/7 following treatment is consistent with morphological change and reflects cell death.

[2] = tested on: cisplatin-resistant ovarian cancer cell line A2780cis; assay: CellTiter-Blue cell viability assay, compound alone or with cisplatin or carboplatin, 24 h; format: cell-based, human; conditions: for viability at 10 µM / viability at 20 µM / viability at 50 µM: Homo sapiens, A2780cis, read-out: survival (%) of cells with compound alone; for viability at 10 µM / viability at 20 µM / viability at 50 µM / survival (%) of cells with compound and cisplatin (20 μM) / Survival (%) of cells with compound and carboplatin (200 μM) / survival (%) of cells with compound alone: 24 h; for viability at 10 µM / viability at 20 µM / viability at 50 µM / survival (%) of cells with compound alone: untreated cells = 100%; for response in the CellTiter-Blue cell viability assay: in words
Procedure: Data were expressed as mean±standard deviation. A Student's t test was used for the comparisons between the treatment with the combination of analogs with cisplatin and with analogs alone. P<0.05 was considered statistically significant. Combination index was calculated using CompuSyn software. A value of 0.3-0.7 for the combination index indicates synergism, 0.1-0.3 indicates strong synergism, and <0.1 indicates very strong synergism (Chou, 2006).
To further validate the activity of the identified 11 active compounds (see FIG. 3), a CellTiter-Blue cell viability assay was performed with increasing concentrations (10 μM, 20 μM and 50 μM) of the disclosed compounds (see FIG. 4 and Table 5). Cisplatin resistant ovarian cancer cells (A2780cis) were treated with a disclosed compound alone, cisplatin alone or a combination of a compound with cisplatin for 24 h to determine the effects of the compounds on cell viability.
Analysis of the effect of the disclosed compounds with another platinum-containing compound, carboplatin, was performed. A2780cis cells were treated with carboplatin alone or with the combination of carboplatin and the disclosed compounds at indicated concentrations for 24 h followed by the analysis of cell viability.

[3] = Table 3, compound 20 μM with 20 μM of cisplatin
[4] = compound 10 μM + cisplatin 20 μM
[5] = compound 20 μM + cisplatin 20 μM
[6] = compound 50 μM + cisplatin 20 μM
[7] = Table 1, compound 20 μM with 20 μM cisplatin
[8] = Table 1, compound 20 μM, mean ± S.D. of triplicates

| Compound | caspase-3/7 activity (Lum), compound with cisplatin [1, 3] [Lum] | caspase-3/7 activity (Lum), compound alone ([1]; Table 3, compound 20 μM) [Lum] | caspase-3/7 activity (Lum), compound alone ([1]; Table 4, compound 20 μM) [Lum] | activity in the screen (Caspase-3/7 activity and microscopic examination), active / inactive [1] | viability at 10 µM ([2]; compound 10 μM) [%] | viability at 20 µM ([2]; compound 20 μM) [%] | viability at 50 µM ([2]; compound 50 μM) [%] | survival (%) of cells with compound and cisplatin (20 μM) [2, 4] [%] | survival (%) of cells with compound and cisplatin (20 μM) [2, 5] [%] | survival (%) of cells with compound and cisplatin (20 μM) [2, 6] [%] | activity in the Caspase-3/7 activity assay [1] | response in the CellTiter-Blue cell viability assay [2] | caspase-3/7 activity (Lum), compound with cisplatin [1, 7] [Lum] | caspase-3/7 activity (Lum), compound alone [1, 8] [Lum] | caspase-3/7 activity (Lum), compound alone ([1]; Table 2, compound 20 μM) [Lum] | Caspase-3/7 activity upon combination with cisplatin compared to cisplatin alone or compound alone [1] | other results |
| --- | --- | --- | --- | --- | --- | --- | --- | --- | --- | --- | --- | --- | --- | --- | --- | --- | --- |
| Cc1ccc(NC(=S)NC(=O)c2cccs2)nc1 [Compound 2-19] | 50 ± 8 | 9 ± 1 | 9 ± 1 | active | 97.3 ± 1.8 | 95.9 ± 2.1 | 95.1 ± 6.4 | 100.4 ± 1.2 | 85.4 ± 9.6 | 53.2 ± 16.0 |  |  |  |  |  |  |  |
| O=C(NC(=S)Nc1ccccn1)c1ccccc1 [Compound 2-32] | 4 ± 1 | 0 ± 1 | 0 ± 1 | active | 97.2 ± 2.9 | 96 ± 1.7 | 81.8 ± 5.2 | 102.7 ± 3.9 | 64.9 ± 10.6 | 33.4 ± 11.8 | lack of activity | positive response |  |  |  |  |  |
| Cc1cccc(-n2c(=S)[nH]c3cc(Cl)ccc3c2=O)c1C [Compound 1-21] |  |  |  | active | 102 ± 1.4 | 100 ± 1.5 | 84.9 ± 2.9 | 90.8 ± 1.4 | 63.1 ± 6.8 | 26.7 ± 2.0 |  |  | 90 ± 6 | 17 ± 3 | 17 ± 3 | increase in Caspase-3/7 activity |  |
| O=c1c2ccccc2[nH]c(=S)n1Cc1ccccc1 [Compound 1-30] |  |  |  | active | 95 ± 2.6 | 95.4 ± 0.9 | 98.1 ± 0.9 | 73.4 ± 6.9 | 52.4 ± 1.2 | 53.2 ± 5.0 |  |  | 111 ± 8 | 18 ± 2 | 18 ± 2 | increase in Caspase-3/7 activity |  |
| CC(C)C(=O)NC(=S)Nc1nc2ccc(Cl)cc2s1 [Compound 2-33] | 23 ± 3 | 11 ± 2 | 11 ± 2 | active | 84.8 ± 4.1 | 77.9 ± 1.1 | 65 ± 6.4 | 92.5 ± 4.8 | 70.4 ± 4.9 | 58.6 ± 7.4 | lack of activity | positive response |  |  |  |  |  |
| COc1cc(-n2c(=S)[nH]c3ccccc3c2=O)c(Cl)cc1Cl [mdivi-1, reference compound] | 80 ± 11 | 20 ± 3 | 20 ± 3 |  |  |  |  | 87.4 ± 2.9 | 39.2 ± 2.7 | 26.3 ± 3.4 |  |  | 102 ± 3 | 28 ± 5 | 28 ± 5 |  | caspase-3/7 activity (Lum) with compound and cisplatin (20 μM) ([1]; compound 5 μM + cisplatin 20 μM): 22 ± 2 Lum; caspase-3/7 activity (Lum) with compound alone ([1]; compound 5 μM): 10 ± 1 Lum; caspase-3/7 activity (Lum) with compound and cisplatin (20 μM) [1, 4]: 24 ± 3 Lum; caspase-3/7 activity (Lum) with compound alone ([1]; compound 10 μM): 10 ± 1 Lum; caspase-3/7 activity (Lum) with compound and cisplatin (20 μM) [1, 5]: 84 ± 3 Lum; caspase-3/7 activity (Lum) with compound alone ([1]; compound 20 μM): 24 ± 2 Lum; Survival (%) of cells with compound and carboplatin (200 μM) ([2]; compound 10 μM + carboplatin 200 μM): 92.6 ± 3.5%; survival (%) of cells with compound alone ([2]; compound 10 μM): 98.4 ± 2.4%; Survival (%) of cells with compound and carboplatin (200 μM) ([2]; compound 20 μM + carboplatin 200 μM): 75.1 ± 3.9%; survival (%) of cells with compound alone ([2]; compound 20 μM): 78.4 ± 3.8%; Survival (%) of cells with compound and carboplatin (200 μM) ([2]; compound 50 μM + carboplatin 200 μM): 40.6 ± 3.0%; survival (%) of cells with compound alone ([2]; compound 50 μM): 61.6 ± 4.4% |
